Measured values reported in US8937089B2, “Synergistic mixtures of anthranilamide invertebrate pest control agents” (priority 2004, dated 2015).

System: beet armyworm (Spodoptera exigua)
Assay: Test I: control of beet armyworm, spray on tomato plants, excised leaves, % mortality and % feeding at 72 hours
Type: in vivo
Description: For evaluating control of beet armyworm (Spodoptera exigua), methomyl was in the liquid formulation as Lannate® LV (29% of active ingredient). Compound 1 was in a water dispersible granules (WDG) formulation with 35% active ingredient. The test compounds were dissolved in water. Enough water was added to make 100 ppm of active ingredient for each compound. Serial dilutions were made to obtain the appropriate concentrations. To obtain the desired mixture concentrations of each compound, twice the desired concentration of each of the two mixture partner compounds were mixed together in equal volumes.
The diluted solutions of the test compounds were sprayed to run-off on three-week-old tomato plants. The plants were placed on a rotating turntable sprayer (10 rpm). Test solutions were applied using a flat fan air-assisted nozzle (Spraying Systems 122440) at 10 psi (69 kPa). After each treated plant had dried, leaves were excised from the treated plant. The leaves were cut into pieces, which were placed singly into 5.5 cm-by-3.5 cm cells of a sixteen-cell plastic tray. Each cell contained a 2.5-cm square of moistened chromatography paper to prevent desiccation. One insect was placed in each cell. There two trays per treatment. […]

With `CNC(=O)c1cc(Cl)cc(C)c1NC(=O)c1cc(Br)nn1-c1ncccc1Cl` [Compound 1, 3-bromo-N-[4-chloro-2-methyl-6-[(methylamino)carbonyl]phenyl]-1-(3-chloro-2-pyridinyl)-1H-pyrazole-5-carboxamide] the “% feeding” value (Compound 1 0.022 ppm) was 9%, the “% feeding” value (Compound 1 0.041 ppm) was 6% and the “% feeding” value (Compound 1 0.163 ppm) was 2%. For the same compound, the “% feeding” value (Compound 1 0.209 ppm) was 2%, the “% feeding” value (Compound 1 0.30 ppm) was 1% and the “% feeding” value (Compound 1 0.60 ppm) was 1%. For the same compound, the mortality at 0.022 ppm (Spodoptera exigua, Compound 1 0.022 ppm, read-out: % mortality (observed)) was 13%, the mortality at 0.041 ppm (Spodoptera exigua, Compound 1 0.041 ppm, read-out: % mortality (observed)) was 44% and the mortality at […] (Spodoptera exigua, Compound 1 0.076 ppm, read-out: % mortality (observed)) was 25%. The mortality at 0.163 ppm (Spodoptera exigua, Compound 1 0.163 ppm, read-out: % mortality (observed)) was 35%, the mortality at 0.209 ppm (Spodoptera exigua, Compound 1 0.209 ppm, read-out: % mortality (observed)) was 47% and the mortality at 0.3 ppm (Spodoptera exigua, Compound 1 0.30 ppm, read-out: % mortality (observed)) was 59%. For the same compound, the mortality at 0.6 ppm (Spodoptera exigua, Compound 1 0.60 ppm, read-out: % mortality (observed)) was 75%.
